Results published in PubChem BioAssay AID248 (DTP/NCI, 2004).
Inconclusive results and toxic doses are left out. Cut-off read from the data, not from the text of the source: active = T/C of 150% or more; inactive = T/C below 125%.

System: L1210 leukemia ip in BDF1 mice, survival T/C
Experiment: NCI In Vivo Anticancer Drug Screen. Data for tumor model L1210 Leukemia (intraperitoneal) in B6D2F1 (BDF1) mice
Conditions: endpoint: mean survival time, higher = longer survival
Method in brief: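 Tumor was transplanted into mice, which were then dosed with test compound or vehicle alone. Survival was recorded for each group, and the treated figure was expressed relative to the control figure.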

[1] = dose: 100.0 mg/kg/injection, schedule: Q04DX003 (ip), vehicle: Klucel (hydroxypropylcellulose) (HPC)
[2] = dose: 100.0 mg/kg/injection, schedule: Q01DX001 (ip), vehicle: Klucel (hydroxypropylcellulose) (HPC)
[3] = dose: 200.0 mg/kg/injection, schedule: Q01DX001 (ip), vehicle: Klucel (hydroxypropylcellulose) (HPC)
[4] = dose: 100.0 mg/kg/injection, schedule: Q01DX009 (ip), vehicle: Klucel (hydroxypropylcellulose) (HPC)
[5] = dose: 200.0 mg/kg/injection, schedule: Q01DX009 (ip), vehicle: Klucel (hydroxypropylcellulose) (HPC)
[6] = dose: 400.0 mg/kg/injection, schedule: Q01DX009 (ip), vehicle: Klucel (hydroxypropylcellulose) (HPC)
[7] = dose: 100.0 mg/kg/injection, schedule: Q04DX003 (ip), vehicle: saline with Tween-80
[8] = dose: 200.0 mg/kg/injection, schedule: Q04DX003 (ip), vehicle: saline with Tween-80
[9] = dose: 400.0 mg/kg/injection, schedule: Q04DX003 (ip), vehicle: saline with Tween-80

Measured: T/C

Cc1ccc(C2OCC(CCl)O2)cc1 (stereo not drawn)
inactive: dose: 222.0 mg/kg/injection, schedule: Q01DX Z (ip), vehicle: methylcellulose (MC) 108 % of control | dose: 333.0 mg/kg/injection, schedule: Q01DX Z (ip), vehicle: methylcellulose (MC) 96 % of control | dose: 500.0 mg/kg/injection, schedule: Q01DX Z (ip), vehicle: methylcellulose (MC) 102 % of control

OCCCN=Cc1ccccc1O.[Co]
inactive: dose: 5.0 mg/kg/injection, schedule: Q01DX001 (ip), vehicle: saline 100 % of control | dose: 10.0 mg/kg/injection, schedule: Q01DX001 (ip), vehicle: saline 94 % of control | dose: 20.0 mg/kg/injection, schedule: Q01DX001 (ip), vehicle: saline 100 % of control | dose: 40.0 mg/kg/injection, schedule: Q01DX001 (ip), vehicle: saline 102 % of control | dose: 80.0 mg/kg/injection, schedule: Q01DX001 (ip), vehicle: saline 105 % of control

O=C(O)c1cc(Br)cc(Cl)c1Br
inactive: dose: 100.0 mg/kg/injection, schedule: Q04DX002 (ip), vehicle: Klucel (hydroxypropylcellulose) (HPC) 96 % of control | dose: 200.0 mg/kg/injection, schedule: Q04DX002 (ip), vehicle: Klucel (hydroxypropylcellulose) (HPC) 96 % of control

CC(=O)Nc1ccc(S(=O)(=O)Nc2ccc(C(=O)O)cc2)cc1
inactive: [1] 100 % of control | dose: 200.0 mg/kg/injection, schedule: Q04DX003 (ip), vehicle: Klucel (hydroxypropylcellulose) (HPC) 87 % of control | dose: 400.0 mg/kg/injection, schedule: Q04DX003 (ip), vehicle: Klucel (hydroxypropylcellulose) (HPC) 92 % of control

CCOC(=S)c1ccc(S(=O)(=O)Nc2ccc(OCC)cc2)cc1
inactive: [2] 95 % of control | [3] 98 % of control | dose: 400.0 mg/kg/injection, schedule: Q01DX001 (ip), vehicle: Klucel (hydroxypropylcellulose) (HPC) 95 % of control

CC(=O)OCCC(CCCl)OC(C)=O (stereo not drawn)
inactive: dose: 100.0 mg/kg/injection, schedule: Q04DX002 (ip), vehicle: saline with Tween-80 111 % of control | dose: 200.0 mg/kg/injection, schedule: Q04DX002 (ip), vehicle: saline with Tween-80 104 % of control | dose: 400.0 mg/kg/injection, schedule: Q04DX002 (ip), vehicle: saline with Tween-80 93 % of control

CNC(C)CC1CCCCC1 (stereo not drawn)
inactive: dose: 0.78 mg/kg/injection, schedule: Q04DX003 (ip), vehicle: saline 94 % of control | dose: 1.56 mg/kg/injection, schedule: Q01DX009 (ip), vehicle: saline 100 % of control | dose: 1.56 mg/kg/injection, schedule: Q04DX003 (ip), vehicle: saline 98 % of control | dose: 3.12 mg/kg/injection, schedule: Q01DX009 (ip), vehicle: saline 102 % of control | dose: 3.12 mg/kg/injection, schedule: Q04DX003 (ip), vehicle: saline 98 % of control | dose: 6.25 mg/kg/injection, schedule: Q01DX009 (ip), vehicle: saline 97 % of control | dose: 6.25 mg/kg/injection, schedule: Q04DX003 (ip), vehicle: saline 98 % of control | dose: 12.5 mg/kg/injection, schedule: Q01DX009 (ip), vehicle: saline 96 % of control | dose: 12.5 mg/kg/injection, schedule: Q04DX003 (ip), vehicle: saline 100 % of control | dose: 25.0 mg/kg/injection, schedule: Q01DX009 (ip), vehicle: saline 97 % of control | dose: 25.0 mg/kg/injection, schedule: Q04DX003 (ip), vehicle: saline with Tween-80 94 % of control | dose: 50.0 mg/kg/injection, schedule: Q01DX009 (ip), vehicle: saline 106 % of control

Nc1nc(SCc2ccccc2)c2ncnnc2n1
inactive: dose: 100.0 mg/kg/injection, schedule: Q01DX001 (ip), vehicle: saline with Tween-80 97 % of control | dose: 200.0 mg/kg/injection, schedule: Q01DX001 (ip), vehicle: saline with Tween-80 103 % of control | dose: 400.0 mg/kg/injection, schedule: Q01DX001 (ip), vehicle: saline with Tween-80 98 % of control

COn1c(CC(=O)C(=O)O)cccc1=O
inactive: dose: 100.0 mg/kg/injection, schedule: Q04DX003 (ip), vehicle: saline 102 % of control | dose: 200.0 mg/kg/injection, schedule: Q04DX003 (ip), vehicle: saline 97 % of control | dose: 400.0 mg/kg/injection, schedule: Q04DX003 (ip), vehicle: saline 94 % of control

COc1ccccc1OCCOCCN(C)C1CC2CCC1(C)C2(C)C (stereo not drawn)
inactive: [1] 93 % of control

O=C(Nc1cccc(C(F)(F)F)c1)Nc1cccc2ccc(O)cc12
inactive: [4] 107 % of control | [5] 106 % of control | [6] 98 % of control

O=c1[nH]c(Cc2ccc([N+](=O)[O-])cc2)c(Br)c(=O)[nH]1
inactive: dose: 50.0 mg/kg/injection, schedule: Q01DX001 (ip), vehicle: Klucel (hydroxypropylcellulose) (HPC) 103 % of control | [2] 92 % of control | [3] 92 % of control

CC(OC1OC(C(=O)O)C(O)C(O)C1O)c1ccccc1 (stereo not drawn)
inactive: dose: 100.0 mg/kg/injection, schedule: Q01DX009 (ip), vehicle: saline 98 % of control | dose: 200.0 mg/kg/injection, schedule: Q01DX009 (ip), vehicle: saline 97 % of control | dose: 400.0 mg/kg/injection, schedule: Q01DX009 (ip), vehicle: saline 105 % of control

O=C(CCCC(=O)NNC(=S)Nc1ccc2ccccc2c1)NNC(=S)Nc1ccc2ccccc2c1
inactive: dose: 50.0 mg/kg/injection, schedule: Q01DX001 (ip), vehicle: saline 98 % of control | dose: 100.0 mg/kg/injection, schedule: Q01DX001 (ip), vehicle: saline 93 % of control | dose: 200.0 mg/kg/injection, schedule: Q01DX001 (ip), vehicle: saline 93 % of control | dose: 400.0 mg/kg/injection, schedule: Q01DX001 (ip), vehicle: saline 90 % of control

O=c1c2ccccc2[nH]c(=S)n1-c1ccc(Cl)cc1
inactive: [4] 100 % of control | [7] 100 % of control | [5] 111 % of control | [8] 100 % of control | [6] 97 % of control | [9] 97 % of control

C=CCOC(=O)C(C)(O)C(Cl)c1ccccc1 (stereo not drawn)
inactive: dose: 100.0 mg/kg/injection, schedule: Q04DX002 (ip), vehicle: saline 103 % of control | dose: 200.0 mg/kg/injection, schedule: Q04DX002 (ip), vehicle: saline 100 % of control | dose: 400.0 mg/kg/injection, schedule: Q04DX002 (ip), vehicle: saline 100 % of control

N#C/C(=C\c1c(Cl)cccc1Cl)c1ccc([N+](=O)[O-])cc1
inactive: [7] 106 % of control | [8] 95 % of control | [9] 92 % of control
